Results on 2 molecules are retold here after US20040228948A1, “Increasing the concentration of conjugated linoleic acid isomers in the milk fat and/or tissue fat of ruminants” (priority 2003, published 2004).

For one assay, the system named is dairy cows. The settings on record: 24 mg/kg of dietary dry matter, 28-day period; increase from 0.8%; cited from earlier work.
The subject of a further assay is lactating Holstein cows. Kind of assay: Example 2 feeding trial: milk fatty acid composition. As to conditions: FIGS. 4 and 5, monensin with safflower oil. The class given is in vivo.
Assay [1] relates to DMBA-induced mammary tumors in rats. The settings on record: 0.05 g CLA/100 g of diet; cited from earlier work.
In another assay the test system is mouse DMBA model. The settings on record: synthetically prepared mixture of the CLA isomers; cited from earlier work.

Source text for lactating Holstein cows: Twenty-eight primiparous and 34 multiparous lactating Holstein cows were used in a randomized complete block design with repeated measures. Animals were blocked according to parity and DIM. Cows within each block were then randomly assigned to one of six treatment diets: (1) Control diet (CTL); (2) Control diet including safflower oil supplemented at 6% of DM (SAFF); (3) Control diet including safflower oil supplemented at 6% of DM plus Vitamin E supplemented at 150 IU/kg DM (SAFF/E); (4) Control diet including safflower oil supplemented at 6% of DM plus monensin supplemented at 24 ppm of DM (SAFF/M); (5) Control diet including safflower oil supplemented at 6% of DM plus Vitamin E supplemented at 150 IU/kg DM plus monensin supplemented at 24 ppm of DM (SAFF/M/E); (6) Control diet including flaxseed oil supplemented at 6% of DM plus Vitamin E supplemented at 150 IU/kg DM (FLAX/E). […] Feed intake was recorded daily and adjusted to maintain 5 to 10% orts. […] Milk yield was recorded daily. […] A portion of milk from each cow was preserved with potassium dichromate and analyzed for protein, fat, lactose, and somatic cell count at the Alberta Agriculture, Food and Rural Development Central Milk Testing Laboratory (Edmonton, Alberta, Canada). […] The data were analyzed as a randomized complete block design with repeated measures using MIXED procedure of SAS version 8:3 (SAS Institute, Cary, N.C.).

As for `CC[C@@]1([C@@H]2O[C@@H]([C@H]3O[C@@](O)(CO)[C@H](C)C[C@@H]3C)C[C@@H]2C)CC[C@H]([C@]2(C)CC[C@]3(C[C@H](O)[C@@H](C)[C@@H]([C@@H](C)[C@@H](OC)[C@H](C)C(=O)O)O3)O2)O1` [monensin], the “CLA in milk fat” value in the assay on dairy cows is 1.3 % of milk fat. In addition, in the assay on lactating Holstein cows, the “persistence of effect on CLA and trans 18:1” value is listed as “consistent across the two-month period”.

As to Conjugated linoleic acid [CLA], the “number of mammary tumors” value in assay [1] was “reduction”. The “papillomas compared to the control mice” value with mouse DMBA model is on record as “about one-half”.
